The values below come from PMC10766610, “DCAF1-based PROTACs with activity against clinically validated targets overcoming intrinsic- and acquired-degrader resistance” (Nature Communications, 2024).

One data set has as its target T1, BRD9 (Homo sapiens, UniProt Q9H8M2).
T1 sequence (Q9H8M2 1-597): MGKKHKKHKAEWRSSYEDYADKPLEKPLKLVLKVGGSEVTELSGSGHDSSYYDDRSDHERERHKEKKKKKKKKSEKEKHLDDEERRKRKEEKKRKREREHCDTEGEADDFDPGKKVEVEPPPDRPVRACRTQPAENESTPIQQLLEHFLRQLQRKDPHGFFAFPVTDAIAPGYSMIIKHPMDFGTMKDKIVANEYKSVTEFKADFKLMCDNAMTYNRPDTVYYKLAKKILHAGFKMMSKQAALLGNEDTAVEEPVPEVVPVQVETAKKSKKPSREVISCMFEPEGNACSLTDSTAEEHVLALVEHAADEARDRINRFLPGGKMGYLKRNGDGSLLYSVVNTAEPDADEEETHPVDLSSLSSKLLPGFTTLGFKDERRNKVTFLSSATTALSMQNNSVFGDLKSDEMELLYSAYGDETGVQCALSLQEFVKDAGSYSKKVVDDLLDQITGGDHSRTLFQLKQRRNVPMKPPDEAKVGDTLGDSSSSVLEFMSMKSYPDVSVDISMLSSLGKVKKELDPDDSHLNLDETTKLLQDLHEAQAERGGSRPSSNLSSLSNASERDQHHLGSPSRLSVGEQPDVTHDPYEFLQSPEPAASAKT
Nature of the data set: Capillary western of BRD9 in 768-O cells. The data set is classed as cell-based. The note with it: 768-O cells (lacking VHL), 2 h. As to the method: Protein peaks were analyzed using Compass for Simple Western version 5.0.1 (ProteinSimple), area under the curve for both α-tubulin ([…]) and BRD9 (90 kDa) per capillary was extracted and BRD9 area was normalized to α-tubulin area on a per-capillary basis before each sample was normalized to the DMSO for each run of three triplicates.

The target of the next data set is T2, LYN (Homo sapiens, UniProt P07948).
T2 construct: host or cells: HEK293T
Nature of the data set: Immunoblot of LYN in HEK293T cells. The data set is classed as cell-based. The note with it: 6 h. On the procedure:
Whole cell lysates for immunoblotting were prepared by pelleting cells at 4 °C (300 g) for 3 min. Cell pellets were then washed 1x with PBS and resuspended in RIPA lysis buffer (VWR, cat # 97063-270) supplemented with protease (Thermo Scientific, cat # A32955) and phosphatase (Thermo Scientific, cat # A32957) inhibitor tablets. Lysates were clarified at 16,000 × g for 15 min at 4 °C prior to quantification by Lowry assay (Bio-Rad cat # 5000113 and cat # 5000114). Whole-cell lysates were loaded into 4–20% Criterion TGX Precast 18 well gels (Bio-Rad, cat # 5671094) and separated by electrophoreses at 120 V for 1 h. The gels were transferred to a nitrocellulose membrane using the Trans-Blot Turbo (Bio-Rad) for 7 min and then blocked for 1 h at room temperature in Odyssey blocking buffer (LICOR Biosciences, cat # 927-50000). Membranes were probed with the appropriate primary antibodies (diluted 1:1000) overnight at 4 °C in 20% Odyssey blocking buffer in 1x TBST. Membranes were washed three times with 1x TBST (5 min per wash), and then incubated with IRDye goat anti-mouse (LICOR, cat # 926-32210) or goat anti-rabbit (LICOR, cat # 926-32211) secondary antibody diluted 1:10,000 in 20% Odyssey blocking buffer for 1 h at room temperature. After three 5-min washes with 1x TBST, the immunoblots were visualized using the ODYSSEY Infrared Imaging System (LICOR). […]
(In general: Immunoblotting shows a protein as a band on a membrane.)

Another data set has as its system TMD8 BTK-GFP/mCh cells. Nature of the data set: Viability by FSC/SSC gate (flow cytometry) in TMD8 BTK-GFP/mCh cells. Format: cell-based, human. A digest of the protocol:
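TMD8 BTK-GFP/mCh cells (25,000/well) dosed with compound for 24 h and analysed by flow cytometry. Viability is the decline in percentage of single cells within an FSC/SSC gate defined by DMSO-treated cells; three biological replicates, 4-parameter logistic fit.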
(In flow cytometry, cells or beads pass a laser one at a time.)

T2 sequence (P07948 whole entry): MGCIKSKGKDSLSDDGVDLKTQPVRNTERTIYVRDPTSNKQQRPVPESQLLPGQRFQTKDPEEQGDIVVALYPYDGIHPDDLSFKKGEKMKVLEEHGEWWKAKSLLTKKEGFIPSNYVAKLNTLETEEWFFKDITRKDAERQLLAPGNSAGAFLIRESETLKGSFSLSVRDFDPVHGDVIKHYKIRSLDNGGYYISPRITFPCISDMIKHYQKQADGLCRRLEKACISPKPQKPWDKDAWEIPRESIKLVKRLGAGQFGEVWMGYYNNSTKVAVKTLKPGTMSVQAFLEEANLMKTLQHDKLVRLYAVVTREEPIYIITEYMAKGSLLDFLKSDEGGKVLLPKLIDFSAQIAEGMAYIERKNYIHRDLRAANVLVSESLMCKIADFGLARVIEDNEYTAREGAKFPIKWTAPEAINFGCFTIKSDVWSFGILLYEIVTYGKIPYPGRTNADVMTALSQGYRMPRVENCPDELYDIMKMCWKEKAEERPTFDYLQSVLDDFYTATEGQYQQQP

As to `COc1cc(-c2cn(C)c(=O)c3cnccc23)c(OC)cc1CN1CCC(OCCCCCC(=O)N2CCN(c3ccc4c(NCCN)nc(C5(c6ccc(Cl)cc6)CCCCC5)nc4c3)CC2)CC1` [DBr-1], the DC50 at BRD9 was 1040 nM.

With `Cc1nc(Nc2ncc(C(=O)Nc3c(C)cccc3Cl)s2)cc(N2CCC(OC3CCN(CCCCCCCC(=O)N4CCN(c5ccc6c(NCCN)nc(C7(c8ccc(Cl)cc8)CCCCC7)nc6c5)CC4)CC3)CC2)n1` [DDa-1], at LYN, the LYN protein levels entry was “not”.

Consider `CC(=O)N1CCN(c2ccc3c(NCCN)nc(C4(c5ccc(Cl)cc5)CCCCC4)nc3c2)CC1` [compound 13], for which the “concentrations with loss of viability” value in the data set with TMD8 BTK-GFP/mCh cells (TMD8 BTK-GFP/mCh, 24 h) was above 5 µM. Besides, in the data set with TMD8 BTK-GFP/mCh cells (discussion), the “concentrations leading to cellular toxicity” value fell in the range of 5 to 10 µM.
